Laboratory results published in US20250340616A1, “NOVEL PEPTIDE MIMICS AND THEIR USE” (STIFTELSEN VECTIS, priority 2021, published 2025).
Where no end group is shown, it is not given here. [ ]: non-standard residue; d: D form. Cit = NC(=O)NCCC[C@H](N)C(=O)O

Tested on: TCR specific for the citrullinated fibrinogen peptide
Test: activation of 58−/− T cell line expressing cit-fib specific TCR by peptide-loaded HLA-DRB1*04:01 monomers (NFAT-GFP reporter, PD1 expression)
Assay type: cell-based, human
Settings: peptide presented on HLA-DRB1*04:01, 48 h; for TCR-dependent NFAT mediated activation of T cells: GFP reporter, FIG. 3; for TCR-dependent PD1 expression: anti-mouse PD-1 staining, FIG. 4
Protocol: 58−/− cell line expressing cit-fib specific TCRs in ametrine expressing vector, along with co-expression of human CD4 and GFP as a reporter for NFAT expression.
HLA-DRB1*04:01 monomeric protein (500 μg/mL) was incubated for 72 h at 37° C. with different versions of fib69-81 peptide (test) and VimX71 peptide (control) in sodium phosphate buffer (1×) containing n-octyl β-D-Glucopyranoside (Sigma-Aldrich, USA) and Pefabloc SC (Sigma-Aldrich, USA), and then stored at 4° C. until used. Loaded HLA monomers were subsequently coated (0.03-2 μg/well) onto 48-well plates in 100 μl PBS for 4 h at 37° C. The HLA/peptide solution was subsequently flicked of the plate and specific T cells (5×104) and anti-CD28 (1 μg/well) were added to the monomer-coated wells and incubated for 48 h at 37° C. before collecting cells.
As positive controls, anti-mouse anti-CD3 (BioLegend #100314), anti-CD28 (BioLegend #101112) were used.
PD1 expression on 58−/− cells was assessed using anti-mouse PD-1 PE-Cy7 antibody, while NFAT activation was studied using assessment of GFP expression following cell stimulation. Human CD4+ametrine+ viable singlets were used as population to look for expression of NFAT and PD1.

Row | Sequence | TCR-dependent NFAT mediated activation of T cells | TCR-dependent PD1 expression
1 | GGFRAQPAKAAAT [FibF71Q74, fibrinogen 69-81 mimic, glutamine in position 74 and phenylalanine in position 71] | equally capable of triggering T cell activation as the original citrullinated peptide | equally capable of triggering T cell activation as the original citrullinated peptide
2 | GGFRAXPAKAAAT (GGFRA[Cit]PAKAAAT; ends and bridges not checked) [FibF71X74] | equally capable of triggering T cell activation as the original citrullinated peptide | equally capable of triggering T cell activation as the original citrullinated peptide
3 | GGYRAQPAKAAAT [FibQ74, fibrinogen 69-81 mimic, a glutamine in position 74] | equally capable of triggering T cell activation as the original citrullinated peptide | equally capable of triggering T cell activation as the original citrullinated peptide
